Assay [1] is described as follows: Food intake of mice after peptide injection. It counts as in vivo. As to conditions: for total food intake: versus vehicle control.
Assay [2] in a line: Blood glucose levels of mice after peptide injection.
The subject of assay [3] is glucagon receptor, GLP-1 receptor or GIP receptor. Briefly: Agonist profile across receptors assigned from the cAMP reporter assay data. As to conditions: assigned from the in vitro EC50 data of Tables 1-4. The assay is classed as cell-based. On the technique in general: A reporter such as luciferase makes a cellular process visible.
The nature of assay [4]: Body weight of mice after peptide injection. As to conditions: DIO mice.
The next assay has as its target T1, GIP receptor (Homo sapiens, UniProt P48546).
T1 construct: expressed in transfected cells; host or cells: HEK293
T1 sequence (P48546 22-466): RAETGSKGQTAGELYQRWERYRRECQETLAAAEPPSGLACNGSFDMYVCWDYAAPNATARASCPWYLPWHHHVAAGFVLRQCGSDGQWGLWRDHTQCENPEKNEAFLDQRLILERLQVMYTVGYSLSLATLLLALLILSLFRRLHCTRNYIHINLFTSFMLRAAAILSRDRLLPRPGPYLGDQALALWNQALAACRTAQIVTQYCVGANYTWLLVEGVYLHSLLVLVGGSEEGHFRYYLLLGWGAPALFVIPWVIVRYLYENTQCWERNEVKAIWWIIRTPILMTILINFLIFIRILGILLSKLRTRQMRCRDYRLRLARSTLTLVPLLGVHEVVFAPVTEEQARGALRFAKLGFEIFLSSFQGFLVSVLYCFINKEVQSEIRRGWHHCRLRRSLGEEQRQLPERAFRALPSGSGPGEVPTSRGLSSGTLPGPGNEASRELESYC
Nature of the assay: cAMP synthesis functional assay (firefly luciferase reporter in HEK293 cells), GIP receptor. It counts as cell-based.

The target of a further assay is T2, glucagon receptor (Homo sapiens, UniProt P47871).
T2 construct: expressed in transfected cells; host or cells: HEK293
Nature of the assay: cAMP synthesis functional assay (firefly luciferase reporter in HEK293 cells), glucagon receptor. As to conditions: relative to the standard (Std.) EC50 of the same run. The assay is classed as cell-based.

The target in a further assay is T3, GLP-1 receptor (Homo sapiens, UniProt P43220).
T3 construct: expressed in transfected cells; host or cells: HEK293
Nature of the assay: cAMP synthesis functional assay (firefly luciferase reporter in HEK293 cells), GLP-1 receptor. It counts as cell-based.

The mark [5] stands for this setting: Example 34, DIO mice, 10 or 35 nmol/kg.
Where [6] appears, read: Example 34, DIO mice, higher dose (35 nmol/kg), Day 0 versus Day 7.
The mark [7] stands for this setting: Example 29, mice, QD for 7 days, 25 nmol/kg.
Where [8] appears, read: Example 20, DIO mice, subcutaneous QW, 70 or 210 nmol/kg/week.
Setting [9] is: relative to the standard (Std.) EC50 of the same run.

These results are taken from patent publication US9062124B2, “GIP-based mixed agonists for treatment of metabolic disorders and obesity” (priority 2008, dated 2015).

Where no end group is shown, it is not given here. [ ]: non-standard residue; d: D form. PEG 40 kDa = PEG (40 kDa) covalently attached to Cys; C14 acyl = 14 carbon fatty acyl group; Aib = CC(C)(N)C(=O)O

T3 sequence (P43220 24-463, species assumed): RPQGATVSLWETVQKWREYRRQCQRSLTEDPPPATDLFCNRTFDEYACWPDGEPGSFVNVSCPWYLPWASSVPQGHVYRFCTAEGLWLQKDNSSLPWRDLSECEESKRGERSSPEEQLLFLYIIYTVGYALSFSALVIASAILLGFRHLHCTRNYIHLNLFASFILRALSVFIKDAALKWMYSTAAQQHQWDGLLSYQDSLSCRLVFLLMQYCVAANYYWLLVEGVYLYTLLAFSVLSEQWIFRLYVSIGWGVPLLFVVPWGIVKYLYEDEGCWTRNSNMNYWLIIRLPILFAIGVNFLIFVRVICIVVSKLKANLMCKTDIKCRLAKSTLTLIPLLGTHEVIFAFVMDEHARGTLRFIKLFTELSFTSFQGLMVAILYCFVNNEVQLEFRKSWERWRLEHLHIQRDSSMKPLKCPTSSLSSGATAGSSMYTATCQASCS
T2 sequence (P47871 26-477): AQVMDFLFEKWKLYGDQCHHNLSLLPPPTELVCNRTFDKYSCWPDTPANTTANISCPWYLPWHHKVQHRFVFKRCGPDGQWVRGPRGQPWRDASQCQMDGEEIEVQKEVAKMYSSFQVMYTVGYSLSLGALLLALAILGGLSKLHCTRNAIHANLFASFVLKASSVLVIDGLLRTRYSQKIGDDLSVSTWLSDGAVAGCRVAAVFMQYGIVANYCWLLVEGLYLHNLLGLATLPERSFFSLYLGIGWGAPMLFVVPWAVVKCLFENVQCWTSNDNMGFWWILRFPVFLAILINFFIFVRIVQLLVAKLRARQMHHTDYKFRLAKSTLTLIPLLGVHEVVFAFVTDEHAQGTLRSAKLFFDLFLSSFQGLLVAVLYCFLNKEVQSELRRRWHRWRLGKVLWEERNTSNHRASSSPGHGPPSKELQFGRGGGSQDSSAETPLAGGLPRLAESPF

With “mt-331: same amino acid sequence as mt-311, differing in the pegylation linker; no acyl group on Lys at position 40 (Y[Aib]EGTFTSDYSIYLDKQAA[Aib]EFVC(PEG 40 kDa)WLLAGGPSSGAPPPSK-NH2; also: PEG linker structure not shown)”, the total food intake entry in assay [1] (setting [5]) is given as “decreased, as compared to the mice injected with a vehicle control”; in assay [1] (Example 35, 3 or 10 nmol/kg), “decreased in comparison to mice administered the vehicle control”. The blood glucose levels entry in assay [2] (setting [6]) is listed as “decreased upon administration of the higher dose”.
“mt-311: non-acylated version of mt-298; PEG on Cys at position 24, C-terminal Lys (Y[Aib]EGTFTSDYSIYLDKQAA[Aib]EFVC(PEG 40 kDa)WLLAGGPSSGAPPPSK-NH2)”: in assay [1] (setting [5]), the total food intake entry is “decreased, as compared to the mice injected with a vehicle control”. The blood glucose levels entry was “decreased” in assay [2] (Example 28, DIO mice, subcutaneous, 10 nmol/kg, Day 0 versus Day 7) and “decreased upon administration of the higher dose” in assay [2] (setting [6]).
Take “mt-353: same sequence as mt-331 with a C14 fatty acyl group on the Lys at position 40 (Y[Aib]EGTFTSDYSIYLDKQAA[Aib]EFVC(PEG 40 kDa)WLLAGGPSSGAPPPSK(C14 acyl)-NH2)”: the total food intake entry in assay [1] (Example 35, 3 or 10 nmol/kg) is given as “decreased in comparison to mice administered the vehicle control”. In assay [2] (Example 35, C57Bl/6 mice on diabetogenic diet), the blood glucose levels result is “additionally caused blood glucose levels to decrease”.
On to `CCCCCCCCCCCCCCCCCC(=O)NCCCC[C@H](NC(=O)[C@H](CO)NC(=O)[C@@H]1CCCN1C(=O)[C@@H]1CCCN1C(=O)[C@@H]1CCCN1C(=O)[C@H](C)NC(=O)CNC(=O)[C@H](CO)NC(=O)[C@H](CO)NC(=O)[C@@H]1CCCN1C(=O)CNC(=O)CNC(=O)[C@H](C)NC(=O)[C@H](CC(C)C)NC(=O)[C@H](CC(C)C)NC(=O)[C@H](Cc1c[nH]c2ccccc12)NC(=O)[C@H](CC(N)=O)NC(=O)[C@@H](NC(=O)[C@H](Cc1ccccc1)NC(=O)[C@H](CCC(=O)O)NC(=O)C(C)(C)NC(=O)[C@H](C)NC(=O)[C@H](C)NC(=O)[C@H](CCC(N)=O)NC(=O)[C@H](CCCCN)NC(=O)[C@H](CC(=O)O)NC(=O)[C@H](CC(C)C)NC(=O)[C@H](Cc1ccc(O)cc1)NC(=O)[C@@H](NC(=O)[C@H](CO)NC(=O)[C@H](Cc1ccc(O)cc1)NC(=O)[C@H](CC(=O)O)NC(=O)[C@H](CO)NC(=O)[C@@H](NC(=O)[C@H](Cc1ccccc1)NC(=O)[C@@H](NC(=O)CNC(=O)[C@H](CCC(=O)O)NC(=O)C(C)(C)NC(=O)[C@@H](N)Cc1ccc(O)cc1)[C@@H](C)O)[C@@H](C)O)[C@@H](C)CC)C(C)C)C(N)=O` [mt-262], for which, in assay [3], the “receptor activity profile (glucagon / GLP-1 / GIP agonism)” value is “exhibited activity at the GIP, GLP-1, and glucagon receptors”. For the same compound, the “decrease in blood glucose levels” value in assay [2] (setting [7]) is approximately 50%.
For the compound “mt-309: acylated version of mt-274: C-terminal Lys with C14 fatty acyl group, 40 kDa PEG on Cys at position 24 (Y[Aib]EGTFTSDYSIYLDKQAA[Aib]EFVC(PEG 40 kDa)WLLAGGPSSGAPPPSK(C14 acyl)-NH2)”, the “total change in body weight (%), effect of dosing frequency” value in assay [4] (Example 37, subcutaneous QD 5 nmol/kg, every 2nd day 10 nmol/kg or QW 30 nmol/kg, Day 6) is given as “approximately the same as the total change in body weight for mice injected QD”. Also, the “decrease in blood glucose levels, effect of dosing frequency” value in assay [2] (Example 37, DIO mice, QD 5, every 2nd day 10 or QW 30 nmol/kg, Day 6) is “a QW injection of mt-309 achieved the same decrease in blood glucose levels as a QD injection”.
Take “Pro3 C24 GIP NH2 (1-42) 40K PEG: amino acids 1-42 of GIP with Pro at position 3, Cys at position 24 attached to 40K PEG, C-terminal amide (YAPGTFISDYSIAMDKIHQQDFVC(PEG 40 kDa)WLLAQKGKKNDWKHNITQ-NH2) [reference compound]”: in assay [1] (setting [8]), the “reduction of cumulative food intake” value is reported as “neither the GIP antagonist nor the GIP agonist peptide were effective”. In addition, in assay [4] (Example 20, subcutaneous QW, 70 or 210 nmol/kg/week, compared with pegylated glucagon/GLP-1 co-agonist), the “reduction of body weight” value was “neither the GIP antagonist nor the GIP agonist peptide were effective”. For the same compound, the “reduction of blood glucose levels” value in assay [2] (setting [8]) is given as “neither the GIP antagonist nor the GIP agonist peptide were effective”.
Usually EC50 stands for the concentration at which the effect is half-maximal. A higher EC50 goes with a less potent agent. On GIP receptor (GIP Receptor EC50, cAMP luciferase reporter assay as in Example 16), `CC[C@H](C)[C@H](NC(=O)[C@H](CO)NC(=O)[C@H](Cc1ccc(O)cc1)NC(=O)[C@H](CC(=O)O)NC(=O)[C@H](CO)NC(=O)[C@@H](NC(=O)[C@H](Cc1ccccc1)NC(=O)[C@@H](NC(=O)CNC(=O)[C@H](CCC(=O)O)NC(=O)C(C)(C)NC(=O)[C@@H](N)Cc1ccc(O)cc1)[C@@H](C)O)[C@@H](C)O)C(=O)N[C@@H](Cc1ccc(O)cc1)C(=O)N[C@@H](CC(C)C)C(=O)N[C@@H](CC(=O)O)C(=O)N[C@@H](CCCCN)C(=O)N[C@@H](CCC(N)=O)C(=O)N[C@@H](C)C(=O)N[C@@H](C)C(=O)NC(C)(C)C(=O)N[C@@H](CCC(=O)O)C(=O)N[C@@H](Cc1ccccc1)C(=O)N[C@H](C(=O)N[C@@H](CC(N)=O)C(=O)N[C@@H](Cc1c[nH]c2ccccc12)C(=O)N[C@@H](CC(C)C)C(=O)N[C@@H](CC(C)C)C(=O)N[C@@H](C)C(=O)NCC(=O)NCC(=O)N1CCC[C@H]1C(=O)N[C@@H](CO)C(=O)N[C@@H](CO)C(=O)NCC(=O)N[C@@H](C)C(=O)N1CCC[C@H]1C(=O)N1CCC[C@H]1C(=O)N1CCC[C@H]1C(=O)N[C@@H](CO)C(=O)N[C@@H](CCCCN)C(N)=O)C(C)C` [mt-263] came in with an EC50 of 3.1 pM. Besides, in assay [2] (Example 30, 10 nmol/kg dose, Day 7 compared to Day 0), the “decrease in blood glucose levels” value is approximately -80 mg/dL.
Regarding `CCCCCCCCCCCCCC(=O)NCCCC[C@H](NC(=O)[C@H](CO)NC(=O)[C@@H]1CCCN1C(=O)[C@@H]1CCCN1C(=O)[C@@H]1CCCN1C(=O)[C@H](C)NC(=O)CNC(=O)[C@H](CO)NC(=O)[C@H](CO)NC(=O)[C@@H]1CCCN1C(=O)CNC(=O)CNC(=O)[C@H](C)NC(=O)[C@H](CC(C)C)NC(=O)[C@H](CC(C)C)NC(=O)[C@H](Cc1c[nH]c2ccccc12)NC(=O)[C@H](CC(N)=O)NC(=O)[C@@H](NC(=O)[C@H](Cc1ccccc1)NC(=O)[C@H](CCC(=O)O)NC(=O)C(C)(C)NC(=O)[C@H](C)NC(=O)[C@H](C)NC(=O)[C@H](CCC(N)=O)NC(=O)[C@H](CCCCN)NC(=O)[C@H](CC(=O)O)NC(=O)[C@H](CC(C)C)NC(=O)[C@H](Cc1ccc(O)cc1)NC(=O)[C@@H](NC(=O)[C@H](CO)NC(=O)[C@H](Cc1ccc(O)cc1)NC(=O)[C@H](CC(=O)O)NC(=O)[C@H](CO)NC(=O)[C@@H](NC(=O)[C@H](Cc1ccccc1)NC(=O)[C@@H](NC(=O)CNC(=O)[C@H](CCC(=O)O)NC(=O)C(C)(C)NC(=O)[C@@H](N)Cc1ccc(O)cc1)[C@@H](C)O)[C@@H](C)O)[C@@H](C)CC)C(C)C)C(N)=O` [mt-260], the “Glucagon Receptor relative activity” value at glucagon receptor is on record as 6.64%. The same compound registered an EC50 at GLP-1 receptor (GLP-1 Receptor EC50, cAMP luciferase reporter assay as in Example 16) of 6.8 pM. Moreover, the “GLP-1 Receptor relative activity” value at GLP-1 receptor (setting [9]) stood at 257.35%. Besides, the “GIP Receptor relative activity” value on GIP receptor (setting [9]) is on record as 583.33%. Further, the “receptor activity profile (glucagon / GLP-1 / GIP agonism)” value in assay [3] is “exhibited activity at the GIP, GLP-1, and glucagon receptors”. In addition, the “decrease in blood glucose levels” value in assay [2] (setting [7]) was approximately 50%.
